In patent EP0353049A2, “NAD-independent alpha- glycerol-3-phosphate dehydrogenases, production and use therof in triglyceride and glycerol determinations” (Genzyme (U.K.) LTD., priority 1988, dated 1990):

Experiments:
[1] = target: enzyme from E. coli (Escherichia coli, UniProt P13035); details: cited from earlier work
[2] = target: T1, NAD-independent α-glycerol-3-phosphate dehydrogenase (Priestia megaterium, UniProt D5DYU7); assay: α-glycerol-3-phosphate dehydrogenase activity assay (rate of INT reduction, absorbance at 505nm, 37°C); format: biochemical, B. megaterium; details: concentration of inhibitor bringing about 50% inhibition
T1 sequence (D5DYU7 1-559): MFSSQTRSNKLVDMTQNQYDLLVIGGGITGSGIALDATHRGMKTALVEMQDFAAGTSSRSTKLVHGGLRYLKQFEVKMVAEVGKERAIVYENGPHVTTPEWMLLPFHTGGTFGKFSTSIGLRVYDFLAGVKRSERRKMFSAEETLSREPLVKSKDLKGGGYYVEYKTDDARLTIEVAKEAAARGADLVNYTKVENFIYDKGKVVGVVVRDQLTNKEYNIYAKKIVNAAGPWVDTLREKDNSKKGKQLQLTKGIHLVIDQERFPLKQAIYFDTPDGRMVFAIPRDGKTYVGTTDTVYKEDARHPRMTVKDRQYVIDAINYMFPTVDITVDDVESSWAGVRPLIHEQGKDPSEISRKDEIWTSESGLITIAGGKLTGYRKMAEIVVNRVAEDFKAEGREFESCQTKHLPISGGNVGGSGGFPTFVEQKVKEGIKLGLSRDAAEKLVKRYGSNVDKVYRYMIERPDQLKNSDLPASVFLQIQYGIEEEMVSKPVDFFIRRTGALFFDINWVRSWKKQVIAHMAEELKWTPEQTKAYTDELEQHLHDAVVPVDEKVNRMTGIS
Experimental: Aliquots of the resulting cell-free extract and other samples containing partially purified α-glycerol-3-phosphate dehydrogenase were used in the following assay test system:
The rate of change of absorbance was measured at 505nm, 37°C in a spectrophotometer. According to such test, the specific activity of the purified enzyme (from gel filtration chromatography) was 1.0 unit/mg protein; a unit is number of µmoles of INT reduced per min.

Sequence of enzyme from E. coli (P13035 whole entry): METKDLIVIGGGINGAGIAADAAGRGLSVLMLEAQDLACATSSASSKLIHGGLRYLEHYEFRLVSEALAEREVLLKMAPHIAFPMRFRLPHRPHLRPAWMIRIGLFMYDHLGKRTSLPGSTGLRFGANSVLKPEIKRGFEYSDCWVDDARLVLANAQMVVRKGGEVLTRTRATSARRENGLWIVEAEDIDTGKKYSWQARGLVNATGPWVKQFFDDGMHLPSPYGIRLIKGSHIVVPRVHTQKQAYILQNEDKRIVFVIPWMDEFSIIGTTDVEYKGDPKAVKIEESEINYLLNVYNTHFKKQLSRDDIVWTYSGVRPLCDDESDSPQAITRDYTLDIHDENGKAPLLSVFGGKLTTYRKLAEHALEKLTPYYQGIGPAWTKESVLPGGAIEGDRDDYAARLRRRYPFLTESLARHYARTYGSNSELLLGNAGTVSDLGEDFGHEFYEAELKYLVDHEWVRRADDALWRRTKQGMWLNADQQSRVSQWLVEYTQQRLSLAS

Row | Compound | Km [1] [µM] | 50% inhibition of enzyme activity (concentration) [2] [%]
1 | O=P(O)(O)OC[C@H](O)CO [L-α-glycerol-3-phosphate] | 400 | –
2 | ammonium sulphate | – | 1
